Laboratory results as given in PubChem BioAssay AID1645864 (Buhrlage Lab, Dana-Farber Cancer Institute and Novartis …, 2021).
Calls of active or inactive are those of the source.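 Rule for the calls: active = maximal inhibition of USP17 at or above 30% in the confirmation dose-response, a value not among the printed readouts; inactive = the rest.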

target: Ubiquitin carboxyl-terminal hydrolase 17-like protein 5 (Homo sapiens) (UniProt A8MUK1); assay: ubiquitin-specific protease 17 inhibitors, concentration series, biochemical, verification of primary actives (AID 1645864); settings: purified USP17, ubiquitin-rhodamine cleavage fluorescence, 3 h
Sequence (A8MUK1 whole entry, looked up): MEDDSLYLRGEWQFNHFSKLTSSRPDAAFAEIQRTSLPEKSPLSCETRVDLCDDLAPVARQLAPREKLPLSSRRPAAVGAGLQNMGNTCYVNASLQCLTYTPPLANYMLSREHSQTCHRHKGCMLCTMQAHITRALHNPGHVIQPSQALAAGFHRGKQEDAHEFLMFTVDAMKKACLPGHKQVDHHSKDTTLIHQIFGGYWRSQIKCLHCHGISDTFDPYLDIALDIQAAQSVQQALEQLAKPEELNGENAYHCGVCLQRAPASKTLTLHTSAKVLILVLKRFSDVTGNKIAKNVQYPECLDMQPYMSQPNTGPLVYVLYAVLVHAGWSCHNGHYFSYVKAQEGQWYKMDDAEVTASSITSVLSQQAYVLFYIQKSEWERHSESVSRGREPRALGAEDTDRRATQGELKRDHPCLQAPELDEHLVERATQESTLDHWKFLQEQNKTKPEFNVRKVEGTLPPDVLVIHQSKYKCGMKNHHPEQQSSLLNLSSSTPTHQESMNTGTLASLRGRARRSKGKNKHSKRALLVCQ

IC50	Compound
30.5 µM	O=C(OC1CSc2nc3ccccc3n2C1)c1ccc([N+](=O)[O-])o1 (stereo not given)
4.92 µM	O=C(COC(=O)c1cc(Cl)c2c(c1)OCO2)Nc1ccc2[nH]c(=O)[nH]c2c1
> 50 µM (inactive)	COc1ccc(N2CCN(Cc3nnnn3Cc3ccc4c(c3)OCO4)CC2)cc1
> 50 µM (inactive)	Cc1ccccc1C(=O)OCCN1C(=O)c2cccc3c(N4CCOCC4)ccc(c23)C1=O
2.65 µM	Cc1ccc2cccc(OCc3nnc(SCC(=O)c4ccc(Cl)cc4)n3C)c2n1
1.64 µM	Nc1c(C(=O)Nc2ccc3c(c2)OCO3)sc2nc(-c3cccnc3)ccc12
38 µM	COc1cccc2sc(N3CCN(c4nc5ccccc5s4)CC3)nc12
12.2 µM	O=C(CC1C(=O)Nc2nc(-c3ccccc3)nn21)Nc1cccc2ccccc12 (stereo not given)
28.2 µM	COc1cccc(NC(=O)C2C3C=CC4(O3)C2C(=O)N(CCc2ccccc2Cl)C4C(=O)NC2CCCCC2)c1 (stereo not given)
0.674 µM	Cc1c(-c2nsc(NC(=O)c3ccc(Cl)cc3)n2)nnn1-c1ccccc1F
0.0729 µM	COc1ccc2cc3c(nc2c1)OC(=O)N(CCc1cccc(F)c1)C3
20.5 µM	Cc1noc(-c2cccc(=O)n2CC(=O)Nc2ccc(C)c(C)c2)n1
> 50 µM (inactive)	CCn1c(=N)n(CCOc2ccc(F)cc2)c2ccccc21
0.678 µM	COc1cc(NC(=O)c2ccc3c(c2)OCO3)ccc1-c1cc2ccccc2oc1=O
0.13 µM	COc1cc(OC)cc(-c2nc(-c3cn(-c4cccc(F)c4)nn3)no2)c1
> 50 µM (inactive)	Cc1noc(C)c1COc1cccc(C(=O)Nc2cc(Cl)ccc2-n2cncn2)c1
26.9 µM	COc1ccc(NC(=O)c2ccccc2OCC(=O)Nc2ccccc2C(F)(F)F)c(C)c1
11.6 µM	N#Cc1ccc(NC(=O)c2ccc(S(=O)(=O)N3CCCCC3)cc2)cc1
29.2 µM	N#Cc1cccnc1N1CCN(C(=O)Nc2cccc3ccccc23)CC1
27.9 µM	Cc1ccc(C(=O)Nc2nc3n(n2)C(c2ccccc2)CC(=O)N3)cc1 (stereo not given)
> 50 µM (inactive)	CCS(=O)(=O)c1ccccc1C(=O)Nc1ccc2sc(C)nc2c1
9.79 µM	Cc1cc(=O)n2c3c(c4c(cc13)c(CO)cc(=O)n4C)OC2
> 50 µM (inactive)	CCc1nc2cc(NC(=O)c3cccc(N4CCCC4=O)c3)ccc2n1C
30.6 µM	CC(=O)c1ccc(NC(=O)c2ccc(N3CCCCS3(=O)=O)cc2Cl)cc1
24.9 µM	COC(=O)c1ccc(NC(=O)CSc2nnc(-c3ccc(O)cc3)n2Cc2ccco2)cc1

IC50	Compound
2.99 µM	Cc1cc(N2CCN(c3ncccn3)CC2)nc2ccc(NC(=O)c3ccncc3)cc12
23.7 µM	CC(=O)N1CCc2cc(S(=O)(=O)NCCC(=O)Nc3cccc(C)c3C)ccc21
> 50 µM (inactive)	Cc1nc2cccnc2n1C1CCN(C(=O)c2cc3cc(Cl)ccc3[nH]2)C1 (stereo not given)
> 50 µM (inactive)	Cc1ccc(S(=O)(=O)Nc2ccccc2SCCS(=O)(=O)c2ccc(Cl)cc2)cc1
> 50 µM (inactive)	CCCN1CCN(C(=O)c2cc(NC(=O)C3CCC3)cc3nc(C)ccc23)CC1
16.8 µM	O=C(CCCCn1c(=O)c2ccccc2n(Cc2ccccc2F)c1=O)NCCc1ccccc1
> 50 µM (inactive)	CC(C)N1CC2CN(Cc3ccc(Cl)cc3)CCN2Cc2ccccc21 (stereo not given)
44.5 µM	COc1ccc(-c2cc(C(=O)NC3CCCCCC3)[nH]n2)cc1S(=O)(=O)N(C)C
19.9 µM	COc1cc(/C=C/C(=O)OCC(=O)Nc2ccc([N+](=O)[O-])cc2OC)ccc1O
43.9 µM	O=c1ncn(Cc2ccc3c(c2)OCO3)cc1-c1ncc(C(F)(F)F)cc1Cl
2.88 µM	Cc1c(-c2ccc(C#N)cc2)oc2ccc(Br)cc2c1=O
32.8 µM	Cn1c(CCNC(=O)c2[nH]nc3c2CCc2ccccc2-3)nc2ccccc21
26.1 µM	COc1ccc(NC(=O)CN2C(=O)c3ccccc3Sc3ccc(C(=O)N4CCCC4)cc32)cc1OC
0.429 µM	O=C(Nc1cccc(-c2nc3ccccc3[nH]2)c1)c1cc2ccccc2oc1=O
> 50 µM (inactive)	O=C(O)COc1ccccc1/C=C1\CCc2c1nc1ccccc1c2C(=O)O
22.3 µM	COc1ccccc1-c1nc(Cn2nnc(C(=O)Nc3cc(C)cc(C)c3)c2N)c(C)o1
1.33 µM	Cc1ccc(-c2nc(NC(=O)COc3ccc(Cl)cc3)no2)cc1
40.5 µM	COc1ccc(C)cc1NC(=O)Cc1csc(NC(=O)c2ccc(=O)[nH]c2)n1
2.37 µM	COc1cc(Cl)c(C)cc1NC(=O)Cn1c(=O)n(CC(=O)NCc2ccco2)c(=O)c2ccccc21
2.13 µM	COc1ccc2nc(-c3ccc(NC(=O)c4cccc(OC)c4OC)cc3)cn2n1
35.2 µM	O=C(COc1cccc2c1CCN(Cc1cccnc1)C2=O)Nc1ccc2c(c1)OCCO2
29.1 µM	Cc1c(C(=O)NCc2cccc(Br)c2)oc2c1-c1[nH]ncc1CC2
3.43 µM	O=C(Cn1cnc2c(cnn2-c2ccc(Cl)cc2)c1=O)NCc1ccccc1Cl
> 50 µM (inactive)	Cc1cnc2nc3c(cc2c1)CN(CCc1ccc(Cl)cc1)CC3
26 µM	O=C(CSc1ncnc2c1oc1ccccc12)NC1CCCC1

IC50	Compound
> 5 µM (inactive)	O=C(CCC1CCCCC1)Nc1ccccc1C(=O)N1CCOCC1
24.7 µM	Cc1nc(NCc2ccccn2)c2cc(-c3ccccc3)sc2n1
> 50 µM (inactive)	CCOc1ccccc1NC(=O)Cn1c(-c2ccc3c(c2)OCO3)cn(-c2ccc(OC)cc2)c1=O
4.02 µM	COc1ccc(CNc2nn3c(-c4cncc(OC)c4)cnc3s2)cc1
15 µM	CNC(=O)c1c2n(c3ncccc13)CCN(S(=O)(=O)c1ccc(-c3ccccc3)cc1)C2
1.17 µM	O=C(Nc1ccc(-c2cn3ccsc3n2)cc1)c1ccc(Cl)c([N+](=O)[O-])c1
> 50 µM (inactive)	COc1ccc(NC(=O)c2nnn(-c3cccc(C)c3)c2C)cc1
> 50 µM (inactive)	CC(=O)c1cccc(NC(=O)c2ccc(CN(c3ccc(C)c(C)c3)S(C)(=O)=O)cc2)c1
23.6 µM	CCOc1ccc(NC(=O)Cn2cnc(S(=O)(=O)N3CCc4ccccc43)c2)cc1
> 50 µM (inactive)	CSc1cccc(NC(=O)CCc2ccc3nc(NC(C)=O)sc3c2)c1
> 50 µM (inactive)	Cc1ccc(CNC(=O)c2cnc3ccccc3n2)cc1
2.51 µM	Cc1ccc(NC(=O)c2cnc3c(c2)c(=O)n(C)c(=O)n3C)cc1
24.5 µM	COc1ccc(NC(=O)CC(=O)c2ccc([N+](=O)[O-])cc2)cc1S(=O)(=O)Nc1ccc(Cl)cc1
> 50 µM (inactive)	Cc1nn(-c2ccc(Cl)cc2)c2[nH]c(=O)c(CNCC3CCCO3)cc12 (stereo not given)
26.8 µM	COc1ccc(-n2nnc(C(=O)Nc3ccccc3)c2N)cc1
> 50 µM (inactive)	O=C(COc1nsnc1N1CCOCC1)Nc1ccccc1F
29.3 µM	O=c1c(NCCCN2CCCC2)nc2ccncc2n1Cc1ccccc1
30.4 µM	Cc1cc(NCC2CC2)n2nc(Nc3cc(Cl)ccc3C)nc2n1
24.6 µM	O=[N+]([O-])c1ccccc1C(c1c[nH]c2ccccc12)c1c[nH]c2ccccc12
> 50 µM (inactive)	CN(C)S(=O)(=O)c1ccc(N2CCCC2)c(C(=O)Nc2ccc(-c3cn4ccsc4n3)cc2)c1
> 50 µM (inactive)	O=c1ccc(-c2noc(-c3ccc4cc[nH]c4c3)n2)c[nH]1
0.609 µM	COc1cc(C)c2c(=O)c3c(oc2c1)C(=O)c1c(O)c(OC)cc(O)c1C3=O
28.2 µM	C/C=C(\Cl)C1=CC(=O)[C@]23C[C@H]2[C@@]2(C)CO[C@@]1(O)[C@@]3(O)O2
11.2 µM	O=C(NC1(O)C(=O)c2ccccc2C1=O)c1cccc2c1-c1ccccc1C2=O
1.78 µM	CCCn1c(=O)c(-c2ccc(C(=O)NCc3ccc(OC)cc3)cc2)nc2cccnc21

IC50	Compound
3.48 µM	Cc1sc2ccn(C)c(=O)c2c1C(=O)NC1CCCC1
> 50 µM (inactive)	COC(=O)c1ccccc1NC(=O)CSc1nnc(CNc2ccc(F)cc2)n1CC1CCCO1 (stereo not given)
> 50 µM (inactive)	COc1cccc(NC(=O)c2nnn(-c3ccccc3)n2)c1
19.5 µM	Cc1ccc(NC(=O)Cn2cc(S(=O)(=O)N3CCCC3)ccc2=O)cc1
23.9 µM	Cn1c(COc2ccccc2)nnc1SCC(=O)Nc1ccc(N2CCOCC2)cc1
> 50 µM (inactive)	CC1CCN(c2cc(-n3cnc(C(=O)N4CCCC(C)C4)c3)ncn2)CC1 (stereo not given)
> 50 µM (inactive)	O=S(=O)(c1cccc2cccnc12)N(CCc1ccccc1)C1CCN(CCc2ccc(Cl)cc2)CC1
18.5 µM	O=C(c1cn(-c2cccc(F)c2)nn1)N1CCc2ccccc2C1
16.5 µM	O=C(Nc1ccccc1Br)c1ccn(COc2ccccc2F)n1
4.06 µM	CCn1cc2c(n1)c(=O)n(Cc1ccc(C)cc1)c(=O)n2CC(=O)Nc1ccc(F)cc1
0.155 µM	Cc1cc(=O)n(C)c2c(O)c3c(cc12)c(C)cc(=O)n3C
43 µM	Fc1ccccc1N1CCN(c2ncc3c(n2)CCN(Cc2ccccn2)C3)CC1
> 50 µM (inactive)	Cc1cc(Cl)ccc1Nc1nc(Nc2cccc(F)c2)nc2nccnc12
28.6 µM	CCCC(O)CCCCCCCc1cc(O)cc(O)c1C(=O)OC(CCC)CCCCCCCc1cc(O)cc(O)c1 (stereo not given)
33.7 µM	O=C(Cn1nnc(-c2ccc(F)cc2)n1)NCCc1ccccc1
> 50 µM (inactive)	COc1ccccc1-c1nc(-c2nnn(Cc3ccc(C)cc3)c2C)no1
> 50 µM (inactive)	CS(=O)(=O)N1CCCc2cc(C(=O)Nc3ccc4c(c3)OCO4)ccc21
> 50 µM (inactive)	CSc1nc2ncc3c(=O)n(CCc4ccccc4)ccc3n2n1
> 50 µM (inactive)	CC(C)Cc1nc2sc3c(NCCN4CCOCC4)ncnc3c2c2c1CCC2
32.5 µM	C=C1CCC2[C@](C)(CCC[C@]2(C)C(=O)OC)[C@H]1CCc1ccoc1/C=C/C(=O)O (stereo not given in full)
0.31 µM	C[C@@H]1OC2=C(C(=O)c3cccc(O)c3C2=O)[C@H](O)[C@@H]1O
> 50 µM (inactive)	CC(C)(C)n1ncc2c(=O)n(Cc3cccc([N+](=O)[O-])c3)cnc21
4.93 µM	CCc1cccc(CC)c1NC(=O)COC(=O)c1cc2cccc(OC)c2oc1=O

Compound	IC50
COC1=C(C2=C(OC)C(=O)c3cc4c(c(O)c3C2=O)C(=O)OC(C)C4)C(=O)c2c(cc3c(c2O)C(=O)OC(C)C3)C1=O (stereo not given)	0.0977 µM
CN1C(=O)[C@@]23C[C@]4([C@@]56C[C@]78SS[C@](CO)(C(=O)N7[C@@H]5Nc5ccccc56)N(C)C8=O)c5ccccc5N[C@@H]4N2C(=O)[C@]1(CO)SS3	> 50 µM (inactive)
